According to patent publication US8017364B2, “Solvent tolerant microorganisms” (Butamax(TM) Advanced Biofuels LLC, priority 2006, dated 2011):

Key:
[1] = test system: PN1011; details: liquid medium, 37° C.
Description: (§1) The growth data was used to calculate the percent growth inhibition caused by 1-butanol by subtracting the percent growth ([…]; where T0OD600 is the initial optical density at the starting time and T5OD600 is the optical density after 5 h) from 100%.

[2] = test system: PN1042; details: liquid medium, 37° C.
Description: as §1

[3] = test system: most microorganisms described in the art; details: liquid medium, 37° C.; cited from earlier work
[4] = test system: Lactococcus lactis overexpressing GroESL; details: GroESL overexpression; equals 0.4% weight/volume (w/v); cited from earlier work
[5] = test system: Lactobacillus paracasei overexpressing GroESL; details: GroESL overexpression; equals 0.4% weight/volume (w/v); cited from earlier work
[6] = test system: identified tolerant strains; assay: Expected growth on solid medium, inferred from IC50 values and correlation with 1-butanol tolerance; assay type: cell-based, Pediococcus

CCCCO [1-butanol]
growth in the presence of 1-butanol ([1]; PN1011, 3% (w/v) 1-butanol): low levels of growth
percent growth inhibition ([1]; PN1011, 3.5% (w/v) 1-butanol, OD600 over 5 h): 100%
growth in the presence of 1-butanol ([2]; PN1042, 3% (w/v) 1-butanol): low levels of growth
percent growth inhibition ([2]; PN1042, 3.5% (w/v) 1-butanol, OD600 over 5 h): 100%
concentration at which growth is totally inhibited [3]: less than 2.0 % w/v
concentration at which strain was able to grow [4]: 0.5 % volume/volume (v/v)
concentration at which strain was able to grow [5]: 0.5 % volume/volume (v/v)

CCC(C)O (stereo not shown) [2-butanol]
concentration in solid medium on which strains are expected to grow [6]: 4.0 % w/v

CCC(C)=O [2-butanone]
concentration in solid medium on which strains are expected to grow [6]: 6.0 % w/v

CC(C)CO [isobutanol]
concentration in solid medium on which strains are expected to grow [6]: 3.5 % w/v
